Laboratory results reported in patent US12173089B2, “Inhibition of pulmonary fibrosis with nutlin-3A and peptides” (BOARD OF REGENTS, THE UNIVERSITY OF TEXAS SYSTEM, priority 2013, dated 2024).

Legend:
NL-fibroblasts = assay: miR-34a and p53 in NL-fibroblasts treated with CSP; type: cell-based, human
Procedure: (§1) FIGS. 6A-6D. CSP (CSP4) augments p53 expression via induction of miR-34a in FL(IPF)-fibroblasts. (FIG. 6A) NL- and FL-fibroblasts (n=3) were treated with PBS, CSP-4 (CSP) or control peptide (CP). RNA was analyzed for miR-34a by real-time PCR. (FIG. 6B) FL-fibroblasts were treated with PBS or CSP or CP with or without miR-34a antisense (miR-34a-AS) or pre-miR-34a or control miRNA (Ctr-miR). Conditioned media (CM) were immunoblotted for PAI-1 and lysates (CL) for p53 and β-actin. (FIG. 6C) FL-fibroblasts were treated with PBS or CSP or CP in the presence or absence of miR-34a-AS, pre-miR-34a or Ctr-miR. RNA was analyzed for changes in miR-34a by real-time PCR. […] Changes in p53, uPA, PAI-1 and col-I were later assessed to identify the minimum amino acids required for the CSP effects.
(§2) NL- and FL-fibroblasts were treated with PBS, CSP or CP and RNA analyzed for miR-34a by real-time PCR. Also, FL-fibroblasts were cultured in the presence of PBS or CSP or CP with or without miR-34a antisense (miR-34a-AS) or pre-miR-34a (o control miRNA. Conditioned medium (CM) from these cultures was immunoblotted for PAI-1 and cell lysates (CL) were immunoblotted for p53. In one experiment, FL-fibroblasts were treated with PBS or CSP or CP in the presence or absence of miR-34a-AS, pre-miR-34a or control miR. RNA was analyzed for changes in miR-34a by real-time PCR. Results appear in FIGS. 6A-6C.

FL(IPF)-fibroblasts = assay: miR-34a (real-time PCR) and p53 (immunoblot) in FL-fibroblasts treated with CSP; type: cell-based, human; settings: controls PBS, CP
Procedure: as §1, §2

BLM-treated mice = assay: Established lung fibrosis in BLM-treated mice (CT scanning, lung function, trichrome staining, hydroxyproline, desmosine); type: in vivo; settings: IP or IV administration beginning 14 d after BLM, WT mice; results reported herein and elsewhere
Procedure: FIGS. 10A-10D. Nutlin-3a (NTL) inhibits lung fibrosis in BLM-treated mice. Mice were exposed to BLM for 14 d to induce lung fibrosis. Saline treated mice were used as fibrosis controls. After 14 d, mice exposed to BLM were injected IV with either vehicle or nutlin-3 a (10 mg/kg body weight) (Zhang F et al. Drug Metab Dispos 39: 15-21, 2011) to determine whether nutlin-3 a inhibited established lung fibrosis. On day 21 after BLM injury, mice underwent CT scanning to assess the extent of fibrosis (FIG. 10A). One representative example is shown (n=9). (FIG. 10B) Lung compliance and resistance were measured in the same mice using the Flexivent system to assess improvement in lung function after nutlin-3 a treatment (n=9). (FIG. 10C) Lung sections were subjected to trichrome staining to assess lung architecture and collagen deposition as an indication of lung fibrosis. (FIG. 10D) Whole lung homogenates were analyzed for total collagen (hydroxyproline) and desmosine content as an independent assessment of changes in ECM.
FIGS. 11A-11D. CSP-4 inhibits established lung fibrosis and improves lung function. Mice were exposed to BLM to induce pulmonary fibrosis. After 14 d, the mice were injected IV with either vehicle or 1.5 mg/kg body weight of CSP-4 or control peptide (“CP”) of scrambled sequence. On d 21 after BLM injury, mice underwent CT scanning examine CSP-4 inhibition of established lung fibrosis (FIG. 11A). One representative example is shown (n=9). (FIG. 11B): Lung volumes were measured in the same mice (n=9) using quantitative CT renditions. (FIG. 11C): Lung sections were subjected to trichrome and H&E staining (not shown) to assess collagen deposition as an indicator of lung fibrosis. (FIG. 11D) Analysis of whole lung homogenates for total hydroxyproline content.
Mice exposed to BLM (or saline in controls) for 14 d to induce lung fibrosis were injected IV with nutlin-3a (10 mg/kg body weight) (Zhang et al, supra) or a vehicle control to determine and the effect on established lung fibrosis was examined. Fibrosis was evaluated by CT scanning and lung function (compliance and resistance) were measured using the Flexivent system. Lung sections were subjected to trichrome staining and H & E staining (the latter not shown) to assess lung architecture and collagen deposition as an indication of fibrosis. Finally, whole lung homogenates were analyzed for total collagen (hydroxyproline) and desmosine content (Bhandary Y P et al, Am J Physiol: Lung Cell Mol Physiol 302:L463-73, 2012; Bhandary Y P et al, Am J Pathol, 183: 131-43 2013) as an independent assessment of the ECM. […] Oral administration of Nutlin-3a 14 days after BLM injury likewise inhibited pulmonary fibrosis in mice.
Mice were exposed to BLM to induce pulmonary fibrosis. After 14 d, the mice were injected IV with either vehicle or 1.5 mg/kg body weight of CSP-4 (SEQ ID NO: 1) or control peptide (scrambled sequence of same amino acids; CP, SEQ ID NO:5) at 1.5 mg/kg body weight or vehicle was injected IV into mice exposed to BLM 14 days earlier. One week later, mice were tested by CT scanning to evaluate lung fibrosis. Lung volume was measured in the same mice using quantitative CT renditions.

[1] = system: lung epithelial cells (LECs); settings: in vitro and in vivo; cited from earlier work
[2] = after BLM; cited from earlier work
ATII cell = settings: BLM- or cigarette smoke-induced; cited from earlier work

Sequence | p53 expression (NL-fibroblasts) | miR-34a expression (FL(IPF)-fibroblasts) | p53 expression (FL(IPF)-fibroblasts) | established lung fibrosis (BLM-treated mice) | BLM-induced apoptosis of LECs [1] | subsequent pulmonary fibrosis [2] | ATII cell apoptosis (ATII cell) | ATII cell p53 expression (ATII cell)
DGIWKASFTTFTVTKYWFYR (Synthetic peptide - Scaffolding domain of human caveolin-1) [CSP, 20 residue peptide which is the scaffolding domain of caveolin-1] | not in NL-fibroblasts | significantly increased | significantly increased | mitigates | protected | prevented | inhibited | inhibited
NYHYLESSMTALYTLGH [PP 2, 17 residue peptide of the inventors' earlier application] | – | – | – | – | protected | prevented | – | –
